Source: PMC7217186 (The Febs Journal, 2019)

Molecular target: T1, TKS (tetraketide synthase) (Cannabis sativa, UniProt B1Q2B6)
T1 construct: gene OLS; codon-optimised gene in pETM11, N-terminal TEV-cleavable His6 tag, cut from wild type after purification; E. coli BL21(DE3); dimer (two dimers in asymmetric unit); Cys157 oxidised to sulfinic acid in crystal
Experiment: LC-MS of products (olivetol, PDAL, HTAL)
Type: biochemical
Settings: 10 μM hexanoyl-CoA, 30 μM malonyl-CoA, 10 μM enzyme, 25 mM Tris pH 8, 150 mM NaCl, 5% glycerol, 25 °C, overnight

T1 sequence (B1Q2B6 2-385): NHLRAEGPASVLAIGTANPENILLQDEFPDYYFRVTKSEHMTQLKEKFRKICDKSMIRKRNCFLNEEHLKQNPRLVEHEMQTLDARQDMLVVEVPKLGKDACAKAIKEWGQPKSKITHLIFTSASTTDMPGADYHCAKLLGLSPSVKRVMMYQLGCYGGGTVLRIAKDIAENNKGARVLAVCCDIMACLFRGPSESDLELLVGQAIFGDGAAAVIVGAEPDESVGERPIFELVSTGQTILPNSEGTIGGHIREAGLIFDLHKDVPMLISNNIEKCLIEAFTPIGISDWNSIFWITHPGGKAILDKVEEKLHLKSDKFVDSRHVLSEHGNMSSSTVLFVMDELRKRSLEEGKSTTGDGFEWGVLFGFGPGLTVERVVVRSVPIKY

| Structure (SMILES) | LC-MS of products (olivetol, PDAL, HTAL) |
| --- | --- |
| CC(C)(COP(=O)(O)OP(=O)(O)OC[C@H]1O[C@@H](n2cnc3c(N)ncnc32)[C@H](O)[C@@H]1OP(=O)(O)O)[C@@H](O)C(=O)NCCC(=O)NCCSC(=O)CC(=O)O [malonyl-CoA] | A major product generated by TKS with malonyl‐CoA and hexanoyl‐CoA was identified as olivetol |
| CCCCCC(=O)SCCNC(=O)CCNC(=O)[C@H](O)C(C)(C)COP(=O)(O)OP(=O)(O)OC[C@H]1O[C@@H](n2cnc3c(N)ncnc32)[C@H](O)[C@@H]1OP(=O)(O)O [hexanoyl-CoA] | A major product generated by TKS with malonyl‐CoA and hexanoyl‐CoA was identified as olivetol |
